Measured values taken from article PMC6979384, “Characterization of the plant homeodomain (PHD) reader family for their histone tail interactions” (Epigenetics & Chromatin, 2020).

What was measured:
Experiment in all cases: Histone peptide microarray
Format in all cases: binding, human
DIDO1 = settings: GST-tagged DIDO1; histone peptide array; arrays performed twice, n of 4
In short: (§1)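 Recombinant GST-PHD protein at 0.5 μM; 293-member modified histone peptide array; signals averaged from four repeats ± SD.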

SP140L = settings: GST-tagged SP140L; histone peptide array; arrays performed twice, n of 4
In short: as §1

ING5 = settings: GST-tagged ING5; histone peptide array; arrays performed twice, n of 4
In short: as §1

KDM5A (1) = settings: GST-tagged KDM5A (1); histone peptide array; arrays performed twice, n of 4
In short: as §1

CHD5 (PPCC) = settings: GST-tagged CHD5 (PPCC = Dual PHD + Dual Chromodomain); histone peptide array; arrays performed twice, n of 4
In short: as §1

PHF23 = settings: GST-tagged PHF23; histone peptide array; arrays performed twice, n of 4
In short: as §1

MORC3 (CW) = settings: GST-tagged MORC3 (CW = CW-type Zn-finger); histone peptide array; arrays performed twice, n of 4
In short: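 GST-tagged PHD finger readers were expressed, purified and applied at 0.5 μM to a microarray of 293 synthetic histone peptides carrying single or combinatorial PTMs, using an optimized protocol. Binding signals are averages with standard deviation from 4 replicates.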

KDM5B (1) = settings: GST-tagged KDM5B (1); histone peptide array; arrays performed twice, n of 4
In short: as §1

PHF21A = settings: GST-tagged PHF21A; histone peptide array; arrays performed twice, n of 4
In short: as §1

BAZ2B = settings: GST-tagged BAZ2B; histone peptide array; arrays performed twice, n of 4
In short: as §1

TRIM66 (PB) = settings: GST-tagged TRIM66 (PB = PHD + Bromodomain); histone peptide array; arrays performed twice, n of 4
In short: as §1

PHF13 = settings: GST-tagged PHF13; histone peptide array; arrays performed twice, n of 4
In short: as §1

KDM4C (TTP) = settings: GST-tagged KDM4C (TTP = Tandem Tudor domain + PHD); histone peptide array; arrays performed twice, n of 4
In short: as §1

ING1 = settings: GST-tagged ING1; histone peptide array; arrays performed twice, n of 4
In short: as §1

CHD5 (PCC) = settings: GST-tagged CHD5 (PCC = PHD + Dual Chromodomain); histone peptide array; arrays performed twice, n of 4
In short: as §1

ING4 = settings: GST-tagged ING4; histone peptide array; arrays performed twice, n of 4
In short: as §1

KDM7A = settings: GST-tagged KDM7A; histone peptide array; arrays performed twice, n of 4
In short: as §1

MLL5 = settings: GST-tagged MLL5; histone peptide array; arrays performed twice, n of 4
In short: as §1

AIRE (PP) = settings: GST-tagged AIRE (PP); histone peptide array; arrays performed twice, n of 4
In short: as §1

KDM5A (3) = settings: GST-tagged KDM5A (3); histone peptide array; arrays performed twice, n of 4
In short: as §1

BPTF (PB) = settings: GST-tagged BPTF (PB = PHD + Bromodomain); histone peptide array; arrays performed twice, n of 4
In short: as §1

RAG2 = settings: GST-tagged RAG2; histone peptide array; arrays performed twice, n of 4
In short: as §1

CHD4 (PPCC) = settings: GST-tagged CHD4 (PPCC = Dual PHD + Dual Chromodomain); histone peptide array; arrays performed twice, n of 4
In short: as §1

KDM5B (3) = settings: GST-tagged KDM5B (3); histone peptide array; arrays performed twice, n of 4
In short: as §1

ING2 = settings: GST-tagged ING2; histone peptide array; arrays performed twice, n of 4
In short: as §1

PHF2 = settings: GST-tagged PHF2; histone peptide array; arrays performed twice, n of 4
In short: as §1

ING3 = settings: GST-tagged ING3; histone peptide array; arrays performed twice, n of 4
In short: as §1

PHF8 = settings: GST-tagged PHF8; histone peptide array; arrays performed twice, n of 4
In short: as §1

PHRF1 (RP) = settings: GST-tagged PHRF1 (RP); histone peptide array; arrays performed twice, n of 4
In short: as §1

TAF3 = settings: GST-tagged TAF3; histone peptide array; arrays performed twice, n of 4
In short: as §1

DPF2 (PPC2W2) = settings: GST-tagged DPF2 (PPC2W2 = Dual PHD + C2W2-type Zn-finger); histone peptide array; arrays performed twice, n of 4
In short: as §1

H3Cit2 + K4me2: H3 1-20
Array Heatmap signal, DIDO1 (DIDO1): 0.7273
Array Heatmap signal, SP140L (SP140L): 0.366
Array Heatmap signal, ING5 (ING5): 0.3412
Array Heatmap signal, KDM5A (1) (KDM5A (1)): 0.4439
Array Heatmap signal, CHD5 (PPCC) (CHD5 (PPCC)): 0.5328
Array Heatmap signal, PHF23 (PHF23): 0.5864
Array Heatmap signal, MORC3 (CW) (MORC3 (CW)): 0.7482
Array Heatmap signal, KDM5B (1) (KDM5B (1)): 0.6545
Array Heatmap signal, PHF21A (PHF21A): 0.4507
Array Heatmap signal, BAZ2B (BAZ2B): 0.45
Array Heatmap signal, TRIM66 (PB) (TRIM66 (PB)): 0.6817
Array Heatmap signal, PHF13 (PHF13): 0.6272
Array Heatmap signal, KDM4C (TTP) (KDM4C (TTP)): 0.4533
Array Heatmap signal, ING1 (ING1): 0.5902
Array Heatmap signal, CHD5 (PCC) (CHD5 (PCC)): 0.7759
Array Heatmap signal, ING4 (ING4): 0.4531
Array Heatmap signal, KDM7A (KDM7A): 0.3325
Array Heatmap signal, MLL5 (MLL5): 0.5743
Array Heatmap signal, AIRE (PP) (AIRE (PP)): 0.3883
Array Heatmap signal, KDM5A (3) (KDM5A (3)): 0.6902
Array Heatmap signal, BPTF (PB) (BPTF (PB)): 0.3387
Array Heatmap signal, RAG2 (RAG2): 0.6011
Array Heatmap signal, CHD4 (PPCC) (CHD4 (PPCC)): 0.5675
Array Heatmap signal, KDM5B (3) (KDM5B (3)): 0.6867
Array Heatmap signal, ING2 (ING2): 0.6329
Array Heatmap signal, PHF2 (PHF2): 0.7165
Array Heatmap signal, ING3 (ING3): 0.4571
Array Heatmap signal, PHF8 (PHF8): 0.4758
Array Heatmap signal, PHRF1 (RP) (PHRF1 (RP)): 0.4884
Array Heatmap signal, TAF3 (TAF3): 0.4779
Array Heatmap signal, DPF2 (PPC2W2) (DPF2 (PPC2W2)): 0.6839
